Laboratory results as given in article PMC3004370, “PI3Kα Inhibitors That Inhibit Metastasis” (Oncotarget, 2010).

Assays:
p110α = target: T1, p110α (Homo sapiens, UniProt P42336); test: Biochemical PI3K inhibition assay, p110α; settings: for IC50: 10 μM ATP, two hours
T1 construct: His-tag; made in house; host or cells: Sf9 insect cells (baculovirus)
Procedure: PIK3CD was generously provided by Novartis Pharmaceuticals. […] Sf9 cells were lysed in a buffer containing 50 mM sodium phosphate, pH 8.0, 400 mM NaCl, 5% glycerol, 1% Triton X-100, 10 mM 2-mercaptoethanol, 1 mM orthovanadate, 10 mM imidazole, and sonicated on ice for 1 minute. Proteins were purified by adding Ni-NTA Superflow beads (Qiagen, Valencia, CA, USA) to the lysate and subsequent rolling for 30 min at 4°C. Beads were washed twice with 50 mM phosphate buffer, pH 8.0, 0.5 M NaCl, 50 mM Imidazole, 2 mM DTT and eluted in the same buffer but with 200 mM imidazole. Purified PI3K's were mixed 1:1 with glycerol and stored at -20°C.
J-series inhibitors were dissolved, serial diluted in DMSO and deposited into 96 well plates at a final DMSO concentration of 1%. We used a novel assay to determine their potency and selectivity. […] Reactions were timed after the addition of 10 μM ATP with 40 μCi/ml γ-32P-ATP (PerkinElmer, Waltham, MA, USA) and 2 mM MgCl2 (all final concentrations). The reactions were terminated after two hours by the addition of 2 N HCl and the lipids extracted with 1:1 MetOH/Chloroform. Radio-labeled phosphatidyl-inositol-3-phosphate in the extracted organic fraction was quantified after the addition of Microscint O (PerkinElmer) using a TopCount 96 well plate scintillation counter (PerkinElmer). IC50 concentrations and inhibition curves were calculated using Prism 5 (GraphPad Software, La Jolla, CA).

p110β = target: T2, p110β (Homo sapiens, UniProt P42338); test: Biochemical PI3K inhibition assay, p110β; settings: 10 μM ATP, two hours
T2 construct: His-tag; made in house; host or cells: Sf9 insect cells (baculovirus)
Source text: (§1) cDNA clones of PIK3CA, PIK3CB and PIK3CG were obtained from Origene (Rockville, MD, USA). PIK3CD was generously provided by Novartis Pharmaceuticals. The cDNA clones were sub-cloned into pFastBac His-Tag (Invitrogen, Carlsbad, CA, USA) and baculovirus clones were generated by the Bac-to-Bac expression system (Invitrogen). p110α, p110β and p110δ were co-expressed in Sf9 insect cells (Invitrogen) with a nSH2-iSH2 fragment of the regulatory subunit p85 comprising AA residues 322 to 600 [4]. p110γ was expressed without a regulatory subunit. Sf9 cells were lysed in a buffer containing 50 mM sodium phosphate, pH 8.0, 400 mM NaCl, 5% glycerol, 1% Triton X-100, 10 mM 2-mercaptoethanol, 1 mM orthovanadate, 10 mM imidazole, and sonicated on ice for 1 minute. Proteins were purified by adding Ni-NTA Superflow beads (Qiagen, Valencia, CA, USA) to the lysate and subsequent rolling for 30 min at 4°C. Beads were washed twice with 50 mM phosphate buffer, pH 8.0, 0.5 M NaCl, 50 mM Imidazole, 2 mM DTT and eluted in the same buffer but with 200 mM imidazole. Purified PI3K's were mixed 1:1 with glycerol and stored at -20°C.
(§2) J-series inhibitors were dissolved, serial diluted in DMSO and deposited into 96 well plates at a final DMSO concentration of 1%. We used a novel assay to determine their potency and selectivity. In brief, micelles of 2.5 μg L-a-Phosphatidylinositol and 2.5 μg 1,2-Diacyl-sn-glycero-3-phospho-L-serine were formed by sonication, mixed with the individual PI3K isoforms and added to the drug dilutions in a reaction buffer containing 10 mM HEPES, 25 mM NaCl, 0.125 μg/μl BSA, and 2 mM BME (final concentrations). Reactions were timed after the addition of 10 μM ATP with 40 μCi/ml γ-32P-ATP (PerkinElmer, Waltham, MA, USA) and 2 mM MgCl2 (all final concentrations). The reactions were terminated after two hours by the addition of 2 N HCl and the lipids extracted with 1:1 MetOH/Chloroform. Radio-labeled phosphatidyl-inositol-3-phosphate in the extracted organic fraction was quantified after the addition of Microscint O (PerkinElmer) using a TopCount 96 well plate scintillation counter (PerkinElmer). IC50 concentrations and inhibition curves were calculated using Prism 5 (GraphPad Software, La Jolla, CA).

p110γ = target: T3, p110γ (Homo sapiens, UniProt P48736); test: Biochemical PI3K inhibition assay, p110γ; settings: 10 μM ATP, two hours; no regulatory subunit
T3 construct: His-tag; made in house; host or cells: Sf9 insect cells (baculovirus)
Source text: as §1, §2

p110δ = target: T4, p110δ (Homo sapiens, UniProt O00329); test: Biochemical PI3K inhibition assay, p110δ; settings: 10 μM ATP, two hours
T4 construct: His-tag; made in house; host or cells: Sf9 insect cells (baculovirus)
Source text: as §1, §2

[1] = tested on: subcutaneous HCT116 xenograft tumors; test: Xenograft tumor model; format: in vivo; settings: nude mice, 150 mg/kg IP daily for three weeks
Procedure: (§3) Tumor xenografts were established by injecting 5x10^6 HCT116 cells subcutaneously into the right flanks of female nude mice. Tumor volume was measured twice weekly using electronic calipers and calculated as length x width^2 x 0.5. After tumors reached an average volume of 50 mm^3, animals were treated daily with drugs at 150 mg/kg via IP injection for three weeks. Tumor phospho-Akt levels were determined following harvest on the last day of the study. Xenografts were excised, snap frozen in liquid nitrogen and pulverized with a pestle. Homogenized tissue was re-suspended in lysis buffer (Cell Signaling Technology) and protein contents normalized by Bradford assay (Bio-Rad Laboratories, Hercules, CA, USA). Western blots were performed as described above.

[2] = tested on: phosphorylation of Akt1 and Akt2 in HCT116 cells; test: P-Akt western analysis in cells; format: cell-based, human; settings: 6 hours, concentrations that inhibited cell growth
Procedure: Phopspho-Akt levels were assayed in HCT116 cells. 1x10^6 cells/well were seeded in six-well plates and serum starved for 2 hours in McCoy's 5A medium. Drugs were pre-mixed with complete medium containing 10% FBS and incubated with the cells for 6 hours. Cells were lysed on ice with 100 mM Tris-HCl, pH 7.0, 10% 2-mercaptoethanol, 4% SDS, 20% glycerol, 0.05% Bromophenol blue, 20 μl 1 mM NaF, 1 mM Na3VO4, and Complete Protease Inhibitor Cocktail Tablet (Roche, Nutley, NJ, USA) without EDTA and sonicated for 30 seconds. Phospho-Akt was assayed with Phospho-Akt (Ser473) antibody (#9271, Cell Signaling Technology, Danvers, MA, USA). Subsequently the membrane was stripped and incubated with Akt1 (D-17) antibody (sc-7126, Santa Cruz Biotechnology,Santa Cruz, CA, USA)) for loading control.

[3] = tested on: P-Akt in HCT116 xenografts; test: Intra-tumor P-Akt levels in xenografts; format: in vivo, nude mice; settings: post IP injection
Procedure: as §3

[4] = tested on: Intraspleenic-injected HCT116 liver and lung metastases; test: Intraspleenic tumor model (metastasis); format: in vivo, mice; settings: 150 mg/kg IP daily, three weeks
Procedure: Intraspleenic-injected HCT116 liver and lung metastases in NOD.Cg-Prkdcscid Il2rgtm1Wjl/SzJ mice (Jackson Laboratory, Bar Harbor, ME, USA) were generated as described in Erikson et. al.. J-series compounds were solubilized in 1:1 DMSO/Cremophor EL (Sigma-Aldrich) and diluted 2.3-fold in water to a final concentration of 7.5 mg/ml. 400 μl of this formulation (150 mg/kg) was injected intraperitoneally (IP) once a day for three weeks, beginning the third day post-surgery. Mice were sacrificed after the treatment and the liver, lungs, and spleen sampled. DNA was extracted from organs with the DNeasy Blood & Tissue Kit (Qiagen). The qPCR assay used for quantification of human DNA in mouse organs has been described. All mouse protocols were designed in accordance with the NIH Guide for the Care and Use of Laboratory Animals and approved by the Institutional Animal Care and Use Committee.

T1 sequence (P42336 whole entry): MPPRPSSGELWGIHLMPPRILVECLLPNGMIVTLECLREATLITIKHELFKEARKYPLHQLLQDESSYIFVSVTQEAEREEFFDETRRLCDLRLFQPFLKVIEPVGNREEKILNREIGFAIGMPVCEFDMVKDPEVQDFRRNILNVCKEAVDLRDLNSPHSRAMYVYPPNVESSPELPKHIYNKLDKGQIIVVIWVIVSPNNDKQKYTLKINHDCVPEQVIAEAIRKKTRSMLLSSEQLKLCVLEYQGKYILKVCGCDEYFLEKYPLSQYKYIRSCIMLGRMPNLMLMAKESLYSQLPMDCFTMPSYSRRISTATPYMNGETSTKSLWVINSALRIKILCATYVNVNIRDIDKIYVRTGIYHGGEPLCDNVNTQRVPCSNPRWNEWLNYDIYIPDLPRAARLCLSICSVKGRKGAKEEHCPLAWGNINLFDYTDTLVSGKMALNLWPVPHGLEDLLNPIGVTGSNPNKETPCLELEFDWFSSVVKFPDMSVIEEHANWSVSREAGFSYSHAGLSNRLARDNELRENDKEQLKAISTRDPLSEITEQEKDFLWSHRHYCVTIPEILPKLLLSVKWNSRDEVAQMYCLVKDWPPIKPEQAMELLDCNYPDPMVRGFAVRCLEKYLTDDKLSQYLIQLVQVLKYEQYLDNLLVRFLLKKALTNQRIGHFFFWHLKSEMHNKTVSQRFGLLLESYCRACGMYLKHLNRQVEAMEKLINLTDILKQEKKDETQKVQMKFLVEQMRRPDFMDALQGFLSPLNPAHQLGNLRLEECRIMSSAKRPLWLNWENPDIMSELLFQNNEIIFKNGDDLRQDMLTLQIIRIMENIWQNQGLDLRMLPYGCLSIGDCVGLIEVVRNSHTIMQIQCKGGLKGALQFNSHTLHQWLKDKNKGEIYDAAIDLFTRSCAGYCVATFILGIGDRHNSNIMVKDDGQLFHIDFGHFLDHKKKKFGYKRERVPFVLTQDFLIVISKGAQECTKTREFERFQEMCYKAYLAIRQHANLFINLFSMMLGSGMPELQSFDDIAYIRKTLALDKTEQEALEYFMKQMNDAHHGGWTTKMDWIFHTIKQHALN
T1 sequence (P27986 322-600 partner limits assumed): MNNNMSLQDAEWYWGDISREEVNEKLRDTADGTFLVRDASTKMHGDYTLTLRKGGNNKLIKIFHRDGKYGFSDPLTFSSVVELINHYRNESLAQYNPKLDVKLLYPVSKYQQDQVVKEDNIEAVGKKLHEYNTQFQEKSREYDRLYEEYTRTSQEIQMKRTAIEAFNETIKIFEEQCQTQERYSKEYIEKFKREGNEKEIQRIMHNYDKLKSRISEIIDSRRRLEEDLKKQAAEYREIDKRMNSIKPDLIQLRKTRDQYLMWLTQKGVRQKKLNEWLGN
T2 sequence (P42338 whole entry): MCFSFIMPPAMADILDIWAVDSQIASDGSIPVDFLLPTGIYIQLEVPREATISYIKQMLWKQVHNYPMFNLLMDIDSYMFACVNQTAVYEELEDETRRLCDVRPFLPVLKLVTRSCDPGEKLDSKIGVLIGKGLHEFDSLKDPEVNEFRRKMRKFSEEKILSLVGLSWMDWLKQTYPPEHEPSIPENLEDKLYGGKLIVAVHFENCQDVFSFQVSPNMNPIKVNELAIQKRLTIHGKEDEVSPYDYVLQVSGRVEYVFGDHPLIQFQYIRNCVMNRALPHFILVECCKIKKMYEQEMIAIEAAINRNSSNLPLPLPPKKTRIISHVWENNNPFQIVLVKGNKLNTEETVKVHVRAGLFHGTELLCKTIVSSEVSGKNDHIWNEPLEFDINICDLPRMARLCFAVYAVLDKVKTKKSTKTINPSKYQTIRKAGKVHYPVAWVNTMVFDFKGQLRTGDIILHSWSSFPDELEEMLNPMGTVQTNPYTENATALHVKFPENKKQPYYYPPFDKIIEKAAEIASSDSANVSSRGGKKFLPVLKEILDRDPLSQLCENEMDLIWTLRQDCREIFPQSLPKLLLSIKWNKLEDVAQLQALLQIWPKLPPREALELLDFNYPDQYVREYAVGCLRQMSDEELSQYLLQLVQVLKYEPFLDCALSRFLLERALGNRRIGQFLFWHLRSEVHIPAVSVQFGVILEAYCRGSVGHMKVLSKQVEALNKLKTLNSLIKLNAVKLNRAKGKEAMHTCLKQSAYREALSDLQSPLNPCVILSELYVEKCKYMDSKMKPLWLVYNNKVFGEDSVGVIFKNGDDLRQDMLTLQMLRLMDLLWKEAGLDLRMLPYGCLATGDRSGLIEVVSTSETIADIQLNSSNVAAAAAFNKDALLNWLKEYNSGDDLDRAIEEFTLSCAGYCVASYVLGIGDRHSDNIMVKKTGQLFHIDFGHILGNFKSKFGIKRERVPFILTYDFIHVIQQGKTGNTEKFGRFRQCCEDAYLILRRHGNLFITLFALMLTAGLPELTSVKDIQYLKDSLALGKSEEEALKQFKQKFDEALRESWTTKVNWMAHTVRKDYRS
T2 sequence (P27986 322-600 partner limits assumed): as the sequence (P27986 322-600 partner limits assumed) above
T3 sequence (P48736 whole entry): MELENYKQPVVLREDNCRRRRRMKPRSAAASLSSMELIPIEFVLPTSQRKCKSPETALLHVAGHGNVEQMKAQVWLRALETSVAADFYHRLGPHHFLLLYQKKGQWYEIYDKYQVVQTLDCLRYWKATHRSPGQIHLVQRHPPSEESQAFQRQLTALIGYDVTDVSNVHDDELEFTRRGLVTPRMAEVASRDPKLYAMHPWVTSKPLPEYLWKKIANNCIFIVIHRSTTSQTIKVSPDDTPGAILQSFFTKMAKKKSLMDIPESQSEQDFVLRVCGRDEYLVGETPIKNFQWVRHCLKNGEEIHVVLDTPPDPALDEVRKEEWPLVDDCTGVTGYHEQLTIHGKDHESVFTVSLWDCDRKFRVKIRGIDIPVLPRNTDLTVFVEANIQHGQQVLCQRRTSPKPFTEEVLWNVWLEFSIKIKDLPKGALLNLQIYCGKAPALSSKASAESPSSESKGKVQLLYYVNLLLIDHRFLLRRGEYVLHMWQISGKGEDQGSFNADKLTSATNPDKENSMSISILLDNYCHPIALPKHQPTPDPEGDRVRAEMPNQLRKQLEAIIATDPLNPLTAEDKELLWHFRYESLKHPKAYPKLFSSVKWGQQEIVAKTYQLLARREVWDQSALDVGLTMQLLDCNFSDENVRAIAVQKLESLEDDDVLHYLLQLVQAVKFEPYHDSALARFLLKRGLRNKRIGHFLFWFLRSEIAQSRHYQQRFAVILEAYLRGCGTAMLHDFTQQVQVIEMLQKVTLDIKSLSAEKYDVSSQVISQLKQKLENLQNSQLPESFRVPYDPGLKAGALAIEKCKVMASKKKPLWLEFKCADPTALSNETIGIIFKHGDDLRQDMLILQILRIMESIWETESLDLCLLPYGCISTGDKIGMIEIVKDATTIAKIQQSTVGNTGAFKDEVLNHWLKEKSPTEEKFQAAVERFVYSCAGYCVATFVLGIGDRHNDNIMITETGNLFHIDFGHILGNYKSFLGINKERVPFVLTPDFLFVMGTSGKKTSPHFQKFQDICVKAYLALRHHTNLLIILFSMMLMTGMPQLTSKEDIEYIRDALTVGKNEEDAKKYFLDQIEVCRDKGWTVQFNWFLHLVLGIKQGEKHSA
T4 sequence (O00329 whole entry): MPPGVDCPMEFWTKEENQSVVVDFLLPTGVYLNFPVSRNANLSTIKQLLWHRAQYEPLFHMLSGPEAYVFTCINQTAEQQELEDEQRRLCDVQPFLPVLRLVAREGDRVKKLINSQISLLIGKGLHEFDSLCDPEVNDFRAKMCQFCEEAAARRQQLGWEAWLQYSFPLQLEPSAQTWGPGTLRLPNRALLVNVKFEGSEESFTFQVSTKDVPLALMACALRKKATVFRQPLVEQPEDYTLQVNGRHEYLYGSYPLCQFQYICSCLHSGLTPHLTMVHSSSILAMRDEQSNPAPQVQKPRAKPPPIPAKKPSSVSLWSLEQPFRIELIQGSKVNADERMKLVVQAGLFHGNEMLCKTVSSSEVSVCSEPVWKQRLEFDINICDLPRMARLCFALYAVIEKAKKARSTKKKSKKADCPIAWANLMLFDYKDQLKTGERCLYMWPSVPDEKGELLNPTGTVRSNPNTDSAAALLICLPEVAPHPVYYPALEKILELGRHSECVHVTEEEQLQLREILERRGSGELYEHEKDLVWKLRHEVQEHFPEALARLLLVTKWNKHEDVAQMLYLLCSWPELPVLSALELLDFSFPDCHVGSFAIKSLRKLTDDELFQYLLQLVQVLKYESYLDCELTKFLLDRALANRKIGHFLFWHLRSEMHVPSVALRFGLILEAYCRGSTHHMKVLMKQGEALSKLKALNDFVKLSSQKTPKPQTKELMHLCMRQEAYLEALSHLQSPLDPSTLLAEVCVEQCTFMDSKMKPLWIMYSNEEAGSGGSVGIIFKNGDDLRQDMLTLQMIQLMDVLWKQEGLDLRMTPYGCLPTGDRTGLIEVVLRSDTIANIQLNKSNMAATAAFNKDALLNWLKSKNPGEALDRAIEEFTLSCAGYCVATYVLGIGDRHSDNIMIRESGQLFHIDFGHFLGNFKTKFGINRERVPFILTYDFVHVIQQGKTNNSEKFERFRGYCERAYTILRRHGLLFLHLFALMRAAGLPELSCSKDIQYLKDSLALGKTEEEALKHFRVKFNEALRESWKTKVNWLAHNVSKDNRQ
T4 sequence (P27986 322-600 partner limits assumed): as the sequence (P27986 322-600 partner limits assumed) above

Row | IC50 (p110α) [µM] | increase of selectivity against the other three isoforms (p110α; J32 versus J27) | effect of substitution on PI3Kα potency/selectivity (in words) (p110α; SAR discussion) | IC50 (p110β) [µM] | IC50 (p110γ) [µM] | IC50 (p110δ) [µM] | increase of inhibitory activity for PI3Kα (p110α; compared to J32) [fold] | Structure (SMILES) | anti-tumor activity against subcutaneous HCT116 xenograft tumors [1] | phosphorylation of Akt1 and Akt2 (western blot) [2] | intra-tumor P-Akt levels [3] | metastatic lesions in the lungs [4] | metastatic foci in the liver (histopathology) ([4]; compared to vehicle) | reduction in primary tumor burden in the spleen (real-time PCR) ([4]; compared to vehicle) | reduction of metastatic liver burden (real-time PCR) ([4]; compared to vehicle) [fold]
1 | 0.015 | up to 8 fold | potency for PI3Kα was retained | 1.2 | 0.62 | 1.4 | – | CCN(/N=C/c1cnc2ccc(Br)cn12)S(=O)(=O)c1cc([N+](=O)[O-])ccc1C [J32] | Only a minor anti-tumor activity | – | – | – | – | – | –
2 | 0.002 | – | – | 0.046 | 0.073 | 0.026 | 7.5 | CCN(/N=C/c1cnc2ccc(Br)cn12)S(=O)(=O)c1cc([N+](=O)[O-])c(N)cc1C [J124-I] | Only a minor anti-tumor activity | inhibitory effect | reduced up to 3 hours | – | – | – | –
3 | 0.004 | – | – | 0.13 | 0.25 | 0.11 | – | CCN(/N=C/c1cnc2ccc(Br)cn12)S(=O)(=O)c1cc([N+](=O)[O-])c(N)cc1Cl [J128] | – | – | – | no lesions | few, if any, metastatic foci | ~ 50% | 9
